Experimental data: PubChem BioAssay AID248 (DTP/NCI, 2004)
Where “and” joins values, the source holds several entries; their conditions need not be identical. Identical values can stand only once. Inconclusive results and toxic doses are left out. Cut-off read from the data, not from the text of the source: active = T/C of 150% or more; inactive = T/C below 125%.

Tested on: L1210 leukemia ip in BDF1 mice, survival T/C
Assay: NCI In Vivo Anticancer Drug Screen. Data for tumor model L1210 Leukemia (intraperitoneal) in B6D2F1 (BDF1) mice
Settings: endpoint: mean survival time, higher = longer survival
How it was run: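 Value reflects the ratio of survival in compound-treated mice to survival in vehicle-treated controls, with both groups carrying the same transplanted tumor.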

[1] = dose: 100.0 mg/kg/injection, schedule: Q04DX003 (ip), vehicle: saline
[2] = dose: 200.0 mg/kg/injection, schedule: Q04DX003 (ip), vehicle: saline
[3] = dose: 400.0 mg/kg/injection, schedule: Q04DX003 (ip), vehicle: saline
[4] = dose: 100.0 mg/kg/injection, schedule: Q04DX003 (ip), vehicle: saline with Tween-80
[5] = dose: 200.0 mg/kg/injection, schedule: Q04DX003 (ip), vehicle: saline with Tween-80
[6] = dose: 400.0 mg/kg/injection, schedule: Q04DX003 (ip), vehicle: saline with Tween-80
[7] = dose: 100.0 mg/kg/injection, schedule: Q01DX009 (ip), vehicle: Klucel (hydroxypropylcellulose) (HPC)
[8] = dose: 100.0 mg/kg/injection, schedule: Q04DX003 (ip), vehicle: Klucel (hydroxypropylcellulose) (HPC)
[9] = dose: 200.0 mg/kg/injection, schedule: Q01DX009 (ip), vehicle: Klucel (hydroxypropylcellulose) (HPC)
[10] = dose: 200.0 mg/kg/injection, schedule: Q04DX003 (ip), vehicle: Klucel (hydroxypropylcellulose) (HPC)
[11] = dose: 400.0 mg/kg/injection, schedule: Q01DX009 (ip), vehicle: Klucel (hydroxypropylcellulose) (HPC)
[12] = dose: 400.0 mg/kg/injection, schedule: Q04DX003 (ip), vehicle: Klucel (hydroxypropylcellulose) (HPC)
[13] = dose: 100.0 mg/kg/injection, schedule: Q01DX009 (ip), vehicle: saline with Tween-80
[14] = dose: 200.0 mg/kg/injection, schedule: Q01DX009 (ip), vehicle: saline with Tween-80
[15] = dose: 400.0 mg/kg/injection, schedule: Q01DX009 (ip), vehicle: saline with Tween-80
[16] = dose: 100.0 mg/kg/injection, schedule: Q01DX001 (ip), vehicle: saline
[17] = dose: 200.0 mg/kg/injection, schedule: Q01DX001 (ip), vehicle: saline
[18] = dose: 400.0 mg/kg/injection, schedule: Q01DX001 (ip), vehicle: saline
[19] = dose: 100.0 mg/kg/injection, schedule: Q01DX001 (ip), vehicle: Klucel (hydroxypropylcellulose) (HPC)
[20] = dose: 200.0 mg/kg/injection, schedule: Q01DX001 (ip), vehicle: Klucel (hydroxypropylcellulose) (HPC)
[21] = dose: 400.0 mg/kg/injection, schedule: Q01DX001 (ip), vehicle: Klucel (hydroxypropylcellulose) (HPC)
[22] = dose: 100.0 mg/kg/injection, schedule: Q04DX002 (ip), vehicle: Klucel (hydroxypropylcellulose) (HPC)
[23] = dose: 200.0 mg/kg/injection, schedule: Q04DX002 (ip), vehicle: Klucel (hydroxypropylcellulose) (HPC)

Measured: T/C

O=C(Nc1ccccc1)OC1CC=CC1
inactive: [1] 90 % of control | [2] 92 % of control | [3] 103 % of control

COc1cc(C)c(CN(C)C)c(OC)c1
inactive: dose: 27.0 mg/kg/injection, schedule: Q01DX Z (ip), vehicle: methylcellulose (MC) 102 % of control

Cc1cccc(C)c1-c1c2ccccc2cc2ccccc12
inactive: dose: 100.0 mg/kg/injection, schedule: Q01DX009 (ip), vehicle: saline 95 % of control | [4] 96 % of control | dose: 200.0 mg/kg/injection, schedule: Q01DX009 (ip), vehicle: saline 93 % of control | [5] 96 % of control | dose: 400.0 mg/kg/injection, schedule: Q01DX009 (ip), vehicle: saline 87 % of control | [6] 93 % of control

CCCOC(CCC(=O)NC(C)(C)C)CC(=O)NC(C)(C)C (configuration not stated)
inactive: [7] 95 % of control | [8] 103 % of control | [9] 90 % of control | [10] 97 % of control | [11] 90 % of control | [12] 93 % of control

CSc1n[nH]c(/N=N/N(C)C)c1C(N)=O
inactive: [8] 99 % of control | [10] 103 % of control | [12] 111 % of control

Cc1cc2c(c(O)c1CN1CCOCC1)C1=C(CCCC1)C(C)(C)O2
inactive: dose: 100.0 mg/kg/injection, schedule: Q01DX001 (ip), vehicle: carboxymethylcellulose (CMC) 107 % of control | dose: 200.0 mg/kg/injection, schedule: Q01DX001 (ip), vehicle: carboxymethylcellulose (CMC) 91 % of control | dose: 400.0 mg/kg/injection, schedule: Q01DX001 (ip), vehicle: carboxymethylcellulose (CMC) 86 % of control

O=C(Nc1ccc(Cl)c(Cl)c1)c1ccc(C(=O)Nc2ccc(Cl)c(Cl)c2)cc1
inactive: [7] 91 % of control | [9] 92 % of control | [11] 86 % of control

NC(=O)c1ccccc1NC(=O)Nc1ccc([N+](=O)[O-])cc1Cl
inactive: [13] 98 % of control | [4] 95 % of control | [14] 102 % of control | [5] 96 % of control | [15] 98 % of control | [6] 95 % of control

C=CCOc1ccccc1C
inactive: dose: 50.0 mg/kg/injection, schedule: Q01DX001 (ip), vehicle: saline 98 % of control | [16] 95 % of control | [17] 97 % of control

CC(=O)OC12CCC34CCC5(CCC(OC(C)=O)(O1)C5C32)O4 (configuration not stated)
inactive: dose: 100.0 mg/kg/injection, schedule: Q01DX001 (ip), vehicle: saline with Tween-80 105 % of control | dose: 200.0 mg/kg/injection, schedule: Q01DX001 (ip), vehicle: saline with Tween-80 98 % of control | dose: 400.0 mg/kg/injection, schedule: Q01DX001 (ip), vehicle: saline with Tween-80 98 % of control

O=c1[nH]c(Cl)nc2c(Cl)c(C(Cl)(Cl)Cl)nn12
inactive: [13] 95 % of control | [4] 101 % of control | [14] 93 % of control | [5] 94 % of control | [6] 92 % of control

CCOC(=O)C1=C(NNC(N)=S)C2CCN1CC2
inactive: [16] 105 % of control | [17] 100 % of control | [18] 101 % of control

Cc1nc2ccccc2cc1CCl
inactive: dose: 75.0 mg/kg/injection, schedule: Q01DX001 (ip), vehicle: acetone 88 % of control | dose: 150.0 mg/kg/injection, schedule: Q01DX001 (ip), vehicle: acetone 88 % of control

NC(CSSc1ccccc1)=NC1CCCCC1
inactive: dose: 12.5 mg/kg/injection, schedule: Q04DX002 (ip), vehicle: other 98 % of control | dose: 25.0 mg/kg/injection, schedule: Q04DX002 (ip), vehicle: other 109 % of control | dose: 50.0 mg/kg/injection, schedule: Q04DX002 (ip), vehicle: other 91 % of control

O=[N+]([O-])C1(Br)c2ccccc2-c2nc3ccccc3cc21 (configuration not stated)
inactive: [19] 94 % of control | [20] 97 % of control | [21] 94 % of control

CCOC(=O)CCc1ccc2c(c1)OCO2
inactive: [1] 103 % of control | [2] 101 % of control | [3] 95 % of control

CN(C)C(=O)NS(=O)(=O)c1ccc(Cl)cc1
inactive: [8] 91 % of control | [10] 96 % of control | [12] 95 % of control

Cc1ccc(Cl)cc1N1C(=O)CC(Sc2ccccc2N)C1=O (configuration not stated)
inactive: [7] 90 % of control | [8] 90 % of control | [9] 90 % of control | [10] 95 % of control | [11] 90 % of control | [12] 90 % of control

CC(=[N-])CC(C)=O.CC(=[N-])CC(C)=O.[Cu+2]
inactive: dose: 6.25 mg/kg/injection, schedule: Q04DX003 (ip), vehicle: saline with Tween-80 88 % of control | dose: 12.5 mg/kg/injection, schedule: Q04DX003 (ip), vehicle: saline with Tween-80 89 % of control

NN=O
inactive: [16] 97 % of control | [17] 101 % of control

COc1cc(/C(C)=C2\SC(=O)NC2=O)ccc1O
inactive: [16] 106 % of control | [17] 95 % of control | [18] 98 % of control

O=S1(=O)C=C(Br)c2ccccc21
inactive: [7] 101 % of control | [8] 91 % of control | [9] 91 % of control | [10] 96 % of control | [12] 90 % of control

Nc1ncnc2c1ncn2C1CC(COP(=O)(O)O)C(O)C1O (configuration not stated)
inactive: dose: 37.0 mg/kg/injection, schedule: Q04DX003 (ip), vehicle: saline 105 % of control | dose: 75.0 mg/kg/injection, schedule: Q01DX001 (ip), vehicle: saline 107 % of control | dose: 75.0 mg/kg/injection, schedule: Q04DX003 (ip), vehicle: saline 110 % of control | dose: 150.0 mg/kg/injection, schedule: Q01DX001 (ip), vehicle: saline 87 % of control | dose: 150.0 mg/kg/injection, schedule: Q04DX003 (ip), vehicle: saline 100 % of control

O=C(Nc1c(Oc2ccc(Cl)cc2)ccc(Cl)c1S(=O)(=O)O)Nc1c(Oc2ccc(Cl)cc2)ccc(Cl)c1S(=O)(=O)O
inactive: dose: 100.0 mg/kg/injection, schedule: Q01DX001 (ip), vehicle: acetone 95 % of control | [1] 95 % of control | [2] 96 % of control | dose: 400.0 mg/kg/injection, schedule: Q01DX001 (ip), vehicle: acetone 92 % of control

CCOC(C(=O)N(C)CCN(C)CCc1ccccc1)(c1ccccc1)c1ccccc1
inactive: [16] 105 % of control | [17] 94 % of control

N#CC/C(C#N)=C/OC(=O)c1ccc(Cl)cc1
inactive: [7] 118 % of control | [9] 124 % of control | [11] 115 % of control

O=C(O)CNC(=O)C(CSCc1ccccc1)NC(=O)OCc1ccccc1 (configuration not stated)
inactive: [8] 97 % of control | [12] 86 % of control

C=COCCCCCCCCCCCC(CCCCCC)OC=C (configuration not stated)
inactive: [22] 94 % of control | [23] 105 % of control

CSc1n[nH]c(N)n1
inactive: [13] 92 % of control | [14] 92 % of control | [15] 92 % of control

Cc1nnc(N)nc1C
inactive: [22] 95 % of control | [23] 103 % of control | dose: 400.0 mg/kg/injection, schedule: Q04DX002 (ip), vehicle: Klucel (hydroxypropylcellulose) (HPC) 95 % of control

O=C1C(c2ccccc2)=C2c3ccccc3-c3ccccc3C2(O)C1c1ccccc1 (configuration not stated)
inactive: [19] 98 % of control | [20] 103 % of control | [21] 98 % of control

N#CCC[P+](CCC#N)(CCC#N)CCCCCC[P+](CCC#N)(CCC#N)CCC#N
inactive: [4] 98 % of control | [5] 93 % of control

Cc1[nH]c2ccccc2c1C1Cc2ccccc2N1 (configuration not stated)
inactive: dose: 100.0 mg/kg/injection, schedule: Q01DX001 (ip), vehicle: other 97 % of control and 103 % of control | dose: 100.0 mg/kg/injection, schedule: Q01DX009 (ip), vehicle: other 101 % of control | dose: 200.0 mg/kg/injection, schedule: Q01DX001 (ip), vehicle: other 100 % of control and 90 % of control | dose: 200.0 mg/kg/injection, schedule: Q01DX009 (ip), vehicle: other 101 % of control | dose: 400.0 mg/kg/injection, schedule: Q01DX001 (ip), vehicle: other 94 % of control | dose: 400.0 mg/kg/injection, schedule: Q01DX009 (ip), vehicle: other 107 % of control
